The values below come from patent US6028110A, “Succinyl hydroxamic acid, N-formyl-N-hydroxy amino carboxylic acid and succinic acid amide derivatives as metalloprotease inhibitors” (British Biotech Pharmaceuticals Ltd., priority 1994, dated 2000).

For assay [1], the system named is human PUMP-1 (matrilysin). Kind of assay: Inhibition of human PUMP-1 (matrilysin) ([14C]-casein degradation assay). The format is biochemical. The following applies: 16 hours at 37° C, recombinant human PUMP-1 expressed in CHO cells. As to the method:
Recombinant human PUMP-1 was expressed in CHO cells and purified by heparin-agarose and Procion Red chromatography. A [^14 C]-casein degradation assay was used to measure PUMP-1 activity. […] The incubation was terminated by addition of trichloroacetic acid (final concentration 10%) and the substrate was separated from the TCA-soluble degradation products by centrifugation at 10,000 g for 15 minutes. […] The inhibitors were dissolved and diluted in DMSO. […] For weak inhibitors, the percentage inhibition (% I) at a concentration of 100 μM is given.

For assay [2], the system named is collagenase. Nature of the assay: Inhibition of collagenase (acetylated 14C collagen, Cawston and Barrett). In kind it is biochemical. The following applies: 37°, 16 hours, pH 7.5. Here is the method: The collagen was acetylated ^14 C collagen prepared by the method of Cawston and Murphy, (Methods in Enzymology, 80, 711, 1981), hereby incorporated by reference. The samples were centrifuged to sediment undigested collagen, and an aliquot of the radioactive supernatant removed for assay on a scintillation counter as a measure of hydrolysis. […] For weak inhibitors, the percentage inhibition (% I) at a concentration of 100 μM is given.

Molecules are shown by their SMILES. Structures can show the parent of a compound that is named as a salt.

Take `CCCCCCCCCCCC[C@H](CC(=O)O)C(=O)N[C@@H](Cc1ccccc1)C(=O)NC` [Comparator Example A, 3R-(1S-Methylcarbamoyl-2-phenyl-ethylcarbamoyl)-pentadecanoic acid]: the “PUMP % Inhibition @ 100 μM” value in assay [1] was determined as 10 % I. Moreover, the “Collagenase % Inhibition @ 100 μM” value in assay [2] came to 30 % I.
For `CCCCCCCCCCCCCCCC[C@H](CC(=O)O)C(=O)N[C@@H](Cc1ccccc1)C(=O)NC` [Example 1, 3R-(1S-Methylcarbamoyl-2-phenyl-ethylcarbamoyl)nonadecanoic acid (dicyclohexylamine salt)], in that order: 20 % I and 0 % I.
